From patent publication US7902201B2, “Isoxazolo-pyrazine derivatives” (Hoffmann-La Roche Inc., priority 2007, dated 2011)

molecular target: T1, GABA A receptors containing the α5 subunit (α5β3γ2) (Homo sapiens, UniProt P18507+P31644); assay: [3H]flumazenil competition binding assay, human GABA A receptor (hKi); conditions: human receptor transiently transfected in HEK293 cells, means of two determinations
T1 construct: expressed in transfected cells; host or cells: HEK293 (transiently transfected); membranes prepared from cell pellets
Experimental: The affinity of compounds at GABA A receptor subtypes was measured by competition for [3H]flumazenil (85 Ci/mmol; Roche) binding to HEK293 cells expressing rat (stably transfected) or human (transiently transfected) receptors of composition α1β3γ2, α2β3γ2, α3β3γ2 and α5β3γ2.
Cell pellets were suspended in Krebs-tris buffer (4.8 mM KCl, 1.2 mM CaCl2, 1.2 mM MgCl2, 120 mM NaCl, 15 mM Tris; pH 7.5; binding assay buffer), homogenized by polytron for ca. 20 sec on ice and centrifuged for 60 min at 4° C. (50000 g; Sorvall, rotor: SM24=20000 rpm). The cell pellets were resuspended in Krebs-tris buffer and homogenized by polytron for ca. 15 sec on ice. Protein was measured (Bradford method, Bio-Rad) and aliquots of 1 mL were prepared and stored at −80° C.
Radioligand binding assays were carried out in a volume of 200 μL (96-well plates) which contained 100 μL of cell membranes, [3H]flumazenil at a concentration of 1 nM for α1, α2, α3 subunits and 0.5 nM for α5 subunits and the test compound in the range of […]. Nonspecific binding was defined by 10^−5 M diazepam and typically represented less than 5% of the total binding. Assays were incubated to equilibrium for 1 hour at. 4° C. and harvested onto GF/C uni-filters (Packard) by filtration using a Packard harvester and washing with ice-cold wash buffer (50 mM Tris; pH 7.5). After drying, filter-retained radioactivity was detected by liquid scintillation counting. Ki values were calculated using Excel-Fit (Microsoft) and are the means of two determinations.

| Ki | Compound |
| --- | --- |
| 14.3 nM | O=C(NC1CCOCC1)c1cnc(OCc2conc2-c2ccccn2)cn1 [Example 19, 5-(3-Pyridin-2-yl-isoxazol-4-ylmethoxy)-pyrazine-2-carboxylic acid (tetrahydro-pyran-4-yl)-amide] |
| 11 nM | CC(C)NC(=O)c1cnc(OCc2conc2-c2ccc(F)cc2)cn1 [Example 15, 5-[3-(4-Fluoro-phenyl)-isoxazol-4-ylmethoxy]-pyrazine-2-carboxylic acid isopropylamide] |
| 13.7 nM | O=C(NC1CC1)c1cnc(OCc2conc2-c2ccccn2)cn1 [Example 21, 5-(3-Pyridin-2-yl-isoxazol-4-ylmethoxy)-pyrazine-2-carboxylic acid cyclopropylamide] |
| 32 nM | C[C@@H](CO)NC(=O)c1cnc(OCc2conc2-c2ccc(Cl)cc2)cn1 [Example 17, 5-[3-(4-Chloro-phenyl)-isoxazol-4-ylmethoxy]-pyrazine-2-carboxylic acid ((S)-2-hydroxy-1-methyl-ethyl)-amide] |
| 11.6 nM | CC(C)NC(=O)c1cnc(OCc2conc2-c2ccc(Cl)cc2)cn1 [Example 16, 5-[3-(4-Chloro-phenyl)-isoxazol-4-ylmethoxy]-pyrazine-2-carboxylic acid isopropylamide] |
| 24 nM | O=C(NCC(F)(F)F)c1cnc(OCc2conc2-c2ccc(F)cc2)cn1 [Example 13, 5-[3-(4-Fluoro-phenyl)-isoxazol-4-ylmethoxy]-pyrazine-2-carboxylic acid (2,2,2-trifluoro-ethyl)-amide] |
| 7.4 nM | C[C@H](CO)NC(=O)c1cnc(OCc2conc2-c2ccc(Cl)cc2)cn1 [Example 18, 5-[3-(4-Chloro-phenyl)-isoxazol-4-ylmethoxy]-pyrazine-2-carboxylic acid ((R)-2-hydroxy-1-methyl-ethyl)-amide] |
| 21 nM | O=C(NCC1CC1)c1cnc(OCc2conc2-c2ccc(F)cc2)cn1 [Example 14, 5-[3-(4-Fluoro-phenyl)-isoxazol-4-ylmethoxy]-pyrazine-2-carboxylic acid cyclopropylmethyl-amide] |
| 9.6 nM | CC(C)NC(=O)c1cnc(OCc2conc2-c2ccccn2)cn1 [Example 20, 5-(3-Pyridin-2-yl-isoxazol-4-ylmethoxy)-pyrazine-2-carboxylic acid isopropylamide] |

Continued, compound first:

| Compound | Ki |
| --- | --- |
| Cc1onc(-c2ccccc2)c1COc1cnc(C(=O)NC2CCC(F)(F)CC2)cn1 [Example 7, 5-(5-Methyl-3-phenyl-isoxazol-4-ylmethoxy)-pyrazine-2-carboxylic acid (4,4-difluoro-cyclohexyl)-amide] | 10.6 nM |
| Cc1onc(-c2ccccc2)c1COc1cnc(C(=O)NC2CC2)cn1 [Example 5, 5-(5-Methyl-3-phenyl-isoxazol-4-ylmethoxy)-pyrazine-2-carboxylic acid cyclopropylamide] | 1.9 nM |
| 5-[(5-Methyl-3-phenyl-isoxazol-4-ylmethyl)-amino]-pyrazine-2-carboxylic acid (tetrahydro-pyran-4-yl)-amide [Example 11] | 12.1 nM |
| Cc1onc(-c2ccccc2)c1COc1cnc(C(=O)NC(C)C)cn1 [Example 3, 5-(5-Methyl-3-phenyl-isoxazol-4-ylmethoxy)-pyrazine-2-carboxylic acid isopropylamide] | 1.2 nM |
| 5-[(5-Methyl-3-phenyl-isoxazol-4-ylmethyl)-amino]-pyrazine-2-carboxylic acid cyclopropylamide [Example 10] | 10.4 nM |
| Cc1onc(-c2ccc(F)cn2)c1COc1cnc(C(=O)NC2CCOCC2)cn1 [Example 12, 5-[3-(5-Fluoro-pyridin-2-yl)-5-methyl-isoxazol-4-ylmethoxy]-pyrazine-2-carboxylic acid (tetrahydro-pyran-4-yl)-amide] | 0.3 nM |
| COC(=O)c1cnc(OCc2c(-c3ccccc3)noc2C)cn1 [Example 1, 5-(5-Methyl-3-phenyl-isoxazol-4-ylmethoxy)-pyrazine-2-carboxylic acid methyl ester] | 29 nM |
| Cc1onc(-c2ccccc2)c1COc1cnc2ccccc2n1 [Example 8, 2-(5-Methyl-3-phenyl-isoxazol-4-ylmethoxy)-quinoxaline] | 7.4 nM |
| Cc1onc(-c2ccccc2)c1COc1cnc(C(=O)NCC2CC2)cn1 [Example 2, 5-(5-Methyl-3-phenyl-isoxazol-4-ylmethoxy)-pyrazine-2-carboxylic acid cyclopropylmethyl-amide] | 3.1 nM |
| Cc1onc(-c2ccccc2)c1COc1cnc(C(=O)NC(C)(C)C)cn1 [Example 4, 5-(5-Methyl-3-phenyl-isoxazol-4-ylmethoxy)-pyrazine-2-carboxylic acid tert-butylamide] | 10.8 nM |
| Cc1onc(-c2ccccc2)c1COc1cnc(C(=O)NC2CCOCC2)cn1 [Example 6, 5-(5-Methyl-3-phenyl-isoxazol-4-ylmethoxy)-pyrazine-2-carboxylic acid (tetrahydro-pyran-4-yl)-amide] | 1.2 nM |
| Cc1onc(-c2ccccc2)c1CNc1cnc(C(=O)NC(C)C)cn1 [Example 9, 5-[(5-Methyl-3-phenyl-isoxazol-4-ylmethyl)-amino]-pyrazine-2-carboxylic acid isopropylamide] | 9.6 nM |
